Experimental findings from patent publication US10597390B2, “Indoles for use in influenza virus infection” (Janssen Sciences Ireland UC, priority 2014, dated 2020) are described below.

The structures appear in SMILES notation. Where only a bound is given, the exact number is not on record here.

Data set [1] deals with influenza virus A/Taiwan/1/86 (H1N1). As to the kind of experiment: organism not typed. It is filed as cell-based. Conditions: MDCK, 72 h, CPE in MDCK cells, three days post-virus exposure, ATPlite. A general note: ATP-based viability assays read luminescence as a measure of living cells.
The nature of data set [2]: in vitro. The conditions noted are these: dog, TOX MDCK CC50.

A word on the melting point: it is the temperature of the solid-liquid transition. By IC50 is commonly meant the concentration that gives 50% inhibition. Read a high IC50 as weaker potency. By CC50 is commonly meant the concentration at which the toxic effect on the cells reaches its halfway point. `O=C(N[C@@H]1CCC[C@H](Nc2nc(-c3c[nH]c4c(F)cc(Cl)cc34)ncc2F)C1)c1ccsc1` [Compound 37]: the melting point was more than 300 °C. Besides, the IC50 in data set [1] was 1 nM. In data set [2], this compound had a CC50 at 3 days of 2400 nM.
For `Cn1cc(C(=O)N[C@@H]2CCC[C@H](Nc3nc(-c4c[nH]c5c(F)cc(F)cc45)ncc3F)C2)nn1` [Compound 130], the melting point is more than 300 °C. In data set [1], this compound gave an IC50 of 32 nM. In data set [2], this compound gave a CC50 at 3 days of 3200 nM.
On the same counts, the results for `CC1([C@@H](CC(=O)O)Nc2nc(-c3c[nH]c4c(F)cc(F)cc34)c(C#N)cc2F)CCCC1` [Compound 245] are 289.6 °C, 3 nM and 700 nM.
`Cc1cc(F)c2[nH]cc(-c3ncc(F)c(N[C@@H]4CCC[C@@H](NC(=O)c5ncoc5C)C4)n3)c2c1` (racemic) [Compound 194]: the melting point came to 140 °C. The same compound gave an IC50 in data set [1] of 17 nM. Moreover, half-maximal cytotoxicity in data set [2] (CC50 at 3 days) was put at 11200 nM.
On the same counts, the results for `Nc1cc(C(=O)N[C@@H]2CCC[C@H](Nc3nc(-c4c[nH]c5c(F)cc(F)cc45)ncc3F)C2)n[nH]1` [Compound 131] are 245.7 °C, 4 nM and 19400 nM.
Regarding `Cc1cnc(C(=O)N[C@@H]2CCC[C@H](Nc3nc(-c4c[nH]c5c(F)cc(Cl)cc45)ncc3F)C2)cn1` (relative stereo) [Compound 11, N-((1R*,3S*)-3-((2-(5-chloro-7-fluoro-1H-indol-3-yl)-5-fluoropyrimidin-4-yl)amino)cyclohexyl)-5-methylpyrazine-2-carboxamide], the melting point was found to be 251.5 °C. The compound also had an IC50 in data set [1] of 40 nM. For the same compound, the CC50 at 3 days in data set [2] is 9000 nM.
Taken in the same sequence, the figures for `COC(C)(C)C(CC(=O)O)Nc1nc(-c2c[nH]c3c(F)cc(F)cc23)c(C#N)cc1F` (stereo not drawn) [Compound 240, 3-((5-cyano-6-(5,7-difluoro-1H-indol-3-yl)-3-fluoropyridin-2-yl)amino)-4-methoxy-4-methylpentanoic Acid] were 218.8 °C, 47 nM and 900 nM.
Taken in the same sequence, the figures for `Cc1ocnc1C(=O)N[C@@H]1CCC[C@H](Nc2nc(-c3c[nH]c4c(F)cc(F)cc34)ncc2F)C1` [Compound 132] were 266.7 °C, 2 nM and 11400 nM.
The compound `Cc1cc(F)c2[nH]cc(-c3ncc(F)c(N[C@@H]4CCC[C@@H](NC(=O)c5nc(C)oc5C)C4)n3)c2c1` (racemic) [Compound 199] displayed a melting point of 170 °C. Besides, in data set [1], the IC50 is 46 nM. In addition, the CC50 at 3 days in data set [2] worked out at 13000 nM.
Taken in the same sequence, the figures for `Cc1cc(F)c2[nH]cc(-c3ncc(F)c(N[C@H]4C5CCC(CC5)[C@@H]4C(=O)O)n3)c2c1` [Compound 166] were 98 °C, 6 nM and 1000 nM.
Compound `COc1ccnc(C(=O)N[C@@H]2CCC[C@H](Nc3nc(-c4c[nH]c5c(F)cc(F)cc45)c(C#N)cc3F)C2)c1` [Compound 161] gave a melting point of 285.5 °C. The compound also returned an IC50 in data set [1] of 3 nM. The compound further displayed a CC50 at 3 days in data set [2] of more than 25000 nM.
Taken in the same sequence, the figures for `Cn1cc(C(=O)N[C@@H]2CCC[C@H](Nc3nc(-c4c[nH]c5c(F)cc(Cl)cc45)ncc3F)C2)cn1` [Compound 52] were 286.8 °C, 2 nM and 4400 nM.
As for `O=C(N[C@@H]1CCC[C@H](Nc2nc(-c3c[nH]c4c(F)cc(F)cc34)ncc2F)C1)c1nccs1` [Compound 109], the melting point is 277 °C. For the same compound, inhibition in data set [1] was half-maximal at 2 nM (IC50). Moreover, the midpoint of cytotoxicity in data set [2], the CC50 at 3 days, lay at 6100 nM.
In turn, `N#Cc1cc(F)c2[nH]cc(-c3ncc(F)c(N[C@H]4CCC[C@@H](NC(=O)c5c[nH]nn5)C4)n3)c2c1` [Compound 172] came in with a melting point of more than 300 °C. In data set [1], this compound displayed an IC50 of 2 nM. In data set [2], this compound had a CC50 at 3 days of more than 25000 nM.
Taken in the same sequence, the figures for `Cn1ncc(N)c1C(=O)N[C@@H]1CCC[C@H](Nc2nc(-c3c[nH]c4c(F)cc(Cl)cc34)ncc2F)C1` [Compound 79] were 166.4 °C, 38 nM and more than 25000 nM.
Taken in the same sequence, the figures for `Cc1cnc(C(=O)N[C@@H]2CCC[C@H](Nc3nc(-c4c[nH]c5c(F)cc(F)cc45)ncc3F)C2)n1C` [Compound 144] were 204.9 °C, 4 nM and 7200 nM.
Taken in the same sequence, the figures for `Nc1n[nH]c(C(=O)N[C@@H]2CCC[C@H](Nc3nc(-c4c[nH]c5c(F)cc(Cl)cc45)ncc3F)C2)n1` [Compound 54] were 293.5 °C, 4 nM and 10400 nM.
`Cn1nc(C(=O)N[C@@H]2CCC[C@H](Nc3nc(-c4c[nH]c5c(F)cc(F)cc45)ncc3F)C2)cc1N` [Compound 149] had a melting point of 253.4 °C. In addition, half-maximal inhibition in data set [1] (IC50) was put at 2 nM. This compound also showed a CC50 at 3 days in data set [2] of 10000 nM.
Taken in the same sequence, the figures for `CC(C)(c1cccs1)[C@H](CC(=O)O)Nc1nc(-c2c[nH]c3c(F)cc(F)cc23)ncc1F` [Compound 231] were 271.1 °C, 10 nM and 2600 nM.
In turn, `O=C(N[C@@H]1CCC[C@H](Nc2nc(-c3c[nH]c4c(F)cc(Cl)cc34)ncc2F)C1)c1ncccn1` [Compound 46] yielded a melting point of 286.8 °C. Also, in data set [1], the IC50 amounted to 5 nM. This compound gave a CC50 at 3 days in data set [2] of 4800 nM.
On the same counts, the results for `Cc1cc(F)c2[nH]cc(-c3nc(N[C@@H]4CCC[C@@H](NC(=O)c5ccccn5)C4)c(F)cc3C#N)c2c1` (racemic) [Compound 22, N-((cis)-3-((5-cyano-3-fluoro-6-(7-fluoro-5-methyl-1H-indol-3-yl)-pyridin-2-yl)amino)cyclohexyl)picolinamide] are 98 °C, 12 nM and more than 25000 nM.
As to `Cc1cc(F)c2[nH]cc(-c3ncc(F)c(NC(CC(=O)O)C(C)(C)c4ccn(C)n4)n3)c2c1` (stereo not drawn) [Compound 234], the melting point worked out at 208.5 °C. This compound showed an IC50 in data set [1] of 460 nM. This compound also returned a CC50 at 3 days in data set [2] of more than 25000 nM.
In turn, `Cc1cc(C(=O)N[C@@H]2CCC[C@H](Nc3nc(-c4c[nH]c5c(F)cc(F)cc45)ncc3F)C2)n[nH]1` [Compound 112] had a melting point of 283 °C. This compound also had an IC50 in data set [1] of 3 nM. This compound also yielded a CC50 at 3 days in data set [2] of 18000 nM.
Taken in the same sequence, the figures for `Cc1ccnc(C(=O)N[C@@H]2CCC[C@H](Nc3nc(-c4c[nH]c5c(F)cc(F)cc45)ncc3F)C2)c1` [Compound 110] were 255 °C, 3 nM and 9600 nM.
On the same counts, the results for `O=C(N[C@@H]1CCC[C@H](Nc2nc(-c3c[nH]c4c(F)cc(F)cc34)ncc2F)C1)C1CCCN1` (stereo partly drawn) [Compound 139] are 208.1 °C, 2000 nM and 11500 nM.
As for `Cn1cc(Br)nc1C(=O)N[C@@H]1CCC[C@H](Nc2nc(-c3c[nH]c4c(F)cc(Cl)cc34)ncc2F)C1` [Compound 57], the melting point worked out at 214.9 °C. For the same compound, in data set [1], half-maximal inhibition (IC50) required 10 nM. The midpoint of cytotoxicity in data set [2], the CC50 at 3 days, lay at 5000 nM.
On the same counts, the results for `Cc1cc(F)c2[nH]cc(-c3ncc(F)c(N[C@@H](CC(=O)O)C(C)(C)C)n3)c2c1` [Compound 169] are 144 °C, 19 nM and 2300 nM.
On the same counts, the results for `CC(C)(c1cccs1)C(CC(=O)O)Nc1nc(-c2c[nH]c3c(F)cc(F)cc23)c(C#N)cc1F` (stereo not drawn) [Compound 229, 3-((5-cyano-6-(5,7-difluoro-1H-indol-3-yl)-3-fluoropyridin-2-yl)amino)-4-methyl-4-(thiophen-2-yl)pentanoic Acid] are 235.7 °C, 18 nM and 200 nM.
On the same counts, the results for `Cn1nncc1C(=O)N[C@@H]1CCC[C@H](Nc2nc(-c3c[nH]c4c(F)cc(F)cc34)ncc2F)C1` [Compound 119] are 285 °C, 5 nM and more than 50000 nM.
For the compound `O=C(N[C@@H]1CCC[C@H](Nc2nc(-c3c[nH]c4c(F)cc(F)cc34)ncc2F)C1)c1ncc[nH]1` [Compound 127], the melting point is more than 300 °C. Half-maximal inhibition in data set [1] (IC50) was put at 1 nM. The compound further returned a CC50 at 3 days in data set [2] of more than 100000 nM.
Turning to `O=C(N[C@@H]1CCC[C@H](Nc2nc(-c3c[nH]c4c(F)cc(F)cc34)ncc2F)C1)c1c[nH]nn1` [Compound 111], the melting point came out at 265 °C. This compound also came in with an IC50 in data set [1] of 0.6 nM. Besides, in data set [2], the cytotoxic concentration (CC50) at 3 days amounted to 9000 nM.
On the same counts, the results for `Nc1cccc(C(=O)N[C@@H]2CCC[C@H](Nc3nc(-c4c[nH]c5c(F)cc(Cl)cc45)ncc3F)C2)n1` [Compound 38] are 268.4 °C, 3 nM and 2700 nM.
On the same counts, the results for `Cc1scnc1C(=O)N[C@@H]1CCC[C@H](Nc2nc(-c3c[nH]c4c(F)cc(Cl)cc34)ncc2F)C1` [Compound 47] are more than 300 °C, 3 nM and 7400 nM.
The compound `O=C(N[C@@H]1CCC[C@H](Nc2nc(-c3c[nH]c4c(F)cc(F)cc34)ncc2F)C1)c1cccc(O)n1` [Compound 104] showed a melting point of 226.6 °C. 2 nM corresponded to half-maximal inhibition in data set [1] (IC50). For the same compound, in data set [2], the CC50 at 3 days was more than 25000 nM.
Taken in the same sequence, the figures for `Cn1nccc1C(=O)N[C@@H]1CCC[C@H](Nc2nc(-c3c[nH]c4c(F)cc(Cl)cc34)ncc2F)C1` [Compound 61] were more than 300 °C, 1 nM and more than 25000 nM.
On the same counts, the results for `COc1cccc(C(=O)N[C@@H]2CCC[C@H](Nc3nc(-c4c[nH]c5c(F)cc(F)cc45)ncc3F)C2)n1` [Compound 98] are 240 °C, 43 nM and 14700 nM.
